From US20100247931A1, “TREATING SURFACES TO ENHANCE BIO-COMPATIBILITY” (priority 2001, published 2010)
Several values for one entry are separate records, joined by “and”; a condition that tells them apart may be missing. Equal entries are not always repeated. Structures can show the parent of a compound that is named as a salt. Values belong to the compound of their own block, whether it stands above or below them.

Key:
Type in all cases: physicochemical
[1] = Colchicine release from polymer coating into phosphate buffered saline (UV/Vis absorbance at 350 nm)
Source text: The stent was placed in a tube containing 4 mls of Phosphate Buffered Saline solution (prepared from tablets supplied by Sigma-Aldrich Chemical Co by dissolving 1 tablet in 200 mls of deionised water) and agitated by rolling. The saline solution was sampled at intervals and its colchicine content determined by monitoring its absorbance at 350 nm using UV/Vis Spectrometry. A calibration plot for various concentrations of Colchicine (4 to 99 micrograms) in solution against the solution's absorbance at 350 nm was constructed to convert sample's release absorbance into drug release values in micrograms per stent. The graph of Colchicine released against release time is plotted in FIG. 3.
1. Stainless steel strips approx 6-8 mm in width were cleaned in IPA with ultrasound for 15 mins, followed by drying at 130° C. for 30 mins 2. The plate was functionalised as in Example 2. 3. The amino group on the functionalised steel was then reacted with the ispcyano group of 3-(triethoxysilyl)isocyanate to form a urea linkage, yielding triethoxysilyl groups on the surface. This was performed by adding the stainless steel plate to a solution of 3-(triethoxysilyl) isocyanate (9 ml) in anhydrous toluene (219 ml). […] The colchicine was released by placing the strips in 4 mls of phosphate buffered saline (PBS) solution, placing on a spiromix and measuring the absorbance at 350 nm over a period of 100 hours 15. […]

[2] = Eosin Y coupling to amine groups of TMSPEA functionalised surface and release (absorbance at 517 nm)
Protocol: Once rinsing had been completed, the sample was placed in a 50 ml sample tube and 4 mls of 0.1 M NaOH was pipetted into it, the sample tube was placed on the Spiramix and it was rolled for—5 minutes. 20 mls of deionised water was then pipetted into the solution and the absorbance of the resulting solution was recorded at 517 nm using a spectrophotometer. The absorbance value was then converted into an amount of eosin Y attached to the sample by using a calibration graph of absorbance readings for known amounts of eosin Y sodium salt. The absorbance reading for the release solution was 0.83 at 517 nm corresponding to 205 μg of eosinY.
All six samples were placed in sample tubes (100*16 mm R. B. tubes clarified polypropylene, Jencons PLC) and rolled on the Spiramix (Denley Spiramix 5) in approximately 4-6 mls of a 0.4% aqueous solution of eosin Y sodium salt (Sigma Aldrich chemical co) for approximately 1 hour.
Once rinsing had been completed, two samples from the ethanol rinsed and unrinse, d sets were placed in 50 ml sample tubes and 4 mls of 0.1 M NaOH was pipetted into each. The sample tubes were placed on the Spiramix and rolled for—5 minutes. 20 mls of deionised water was then pipetted into each sample and the absorbance of the resulting solution was recorded at 517 nm using a Jenway 6305 W/V is spectrophotometer. The values recorded were then converted into amounts of eosin Y attached to the samples by using a calibration graph of absorbance readings for known amounts of eosin Y sodium salt.
After drying for 2 hours at 50° C. the sample was stained with Eosin Y solution, visually examined and then released as detailed in the Eosin Y Coupling section of Example 6.

[3] = Mitoxantrone coupling and release from coated device (absorbance of release solution at 660 nm)
Protocol: A 0.01% solution of mitoxantrone (Sigma Aldrich Chemical Co) was made up in deionised water. The samples are each immersed in 4 mls of the solution and left rolling on a Spiramix (Denley Spiramix 5) for—17 hours (Samples placed in 100*16 mm R. B. tube clarified polypropylene supplied by Jencons PLC.). After this time they were rinsed in deionised water until there was no evidence of the mitoxantrone being removed in the water. 4 mls of phosphate buffered saline solution (PBS) was then pipetted into a clean sample tube and the sample added. The samples were left in this solution for 1 hour on the Spiramix, after which absorbances were recorded by spectrophotometer at 660 nm. The solutions were then transferred back into the appropriate sample tube and 5 drops of 1M hydrochloric acid added from a dropping pipette. The samples were left for 10 minutes rolling on the Spiramix, after which an absorbance reading was recorded. Further readings were obtained after 1 hour or more to give a value for complete release of mitoxantrone. The absorbances recorded for the release solutions at 660 nm gave an indication of the amount of mitoxantrone attached to the carboxymethylcellulose coating on each sample. By use of a calibration curve plotting known concentrations of mitoxantrone solutions against the absorbance of the solution at 660 nm, the mitoxantrone concentration of the release solution was determined and from this the amount of mitoxantrone attached to each device. An absorbance of 0.09 at 660 nm was obtained for the 1 hour release in phosphate buffered saline solution, and an absorbance of 0.17 for the complete release of Mitoxantrone. This equates to approximately 31 micrograms of mitoxantrone attached to the stent.

[4] = as above; remark: listed apart in the source
[5] = Example 2: stent coupled with poly(acrylic acid) partial sodium salt, Mw 2000
[6] = Example 9: heat exchange tubes coupled with polyacrylic acid sodium salt, Mw ca. 30,000

Structure (SMILES): COc1cc2c(c(OC)c1OC)-c1ccc(OC)c(=O)cc1[C@@H](NC(C)=O)CC2 [colchicine]
- Release of drug into phosphate buffered saline solution ([1]; Coating of poly(vinyl butyral-co-vinyl alcohol-co-vinyl acetate) and colchicine without poly(ethylene glycol)): does not release the drug into phosphate buffered saline solution
- Total amount of drug released after sonication in 2-propanol ([1]; Example 14: strip coated with poly(vinyl butyral-co-vinyl alcohol-co-vinyl acetate) + poly(ethylene glycol) + colchicine, after 100 hours in PBS): 320 u. g

- Eosin Y attached to the sample ([2]; Example 6: TMSPEA functionalised tube (toluene, 30 minutes), calibration graph): 205 µg
- Absorbance of release solution at 517 nm ([2]; Example 6: TMSPEA functionalised tube (toluene, 30 minutes), released in 0.1 M NaOH): 0.83
- Absorbance of release solution at 517 nm ([2]; Example 15: tube functionalised with TMSPEA in tetrahydrofuran instead of toluene): 0.19
Structure (SMILES): O=C1OC2(c3ccccc31)c1cc(Br)c(O)c(Br)c1Oc1c2cc(Br)c(O)c1Br [eosin Y, eosin Y sodium salt]

Structure (SMILES): O=C1c2c(O)ccc(O)c2C(=O)c2c(NCCNCCO)ccc(NCCNCCO)c21 [mitoxantrone]
- Absorbance at 660 nm, complete release of mitoxantrone ([3]; Example 1: CMC coupled stent, PBS + 1M HCl): 0.17
- Mitoxantrone attached to the stent ([3]; Example 1: CMC coupled stent, from calibration curve): approximately 31 micrograms
- Absorbance at 660 nm, 1 hour release in phosphate buffered saline solution ([3]; Example 1: stainless steel stent, TMSPEA functionalised, carboxymethylcellulose coupled): 0.09
- Absorbance at 660 nm, released 10 minutes in PBS with 5 drops 1 M HCl [4, 5]: 0.037
- Mitoxantrone attached to the stent [4, 5]: 7 micrograms
- Mitoxantrone attached to the heparin coated devices (complete release values) ([4]; Example 3: heparin coupled stainless steel heat exchange tubes): 31 micrograms and 36 micrograms
- Mitoxantrone attachment of released stent ([4]; Example 7: commercially available stent, heparin/EDC Reaction Solution 1 of Example 6): 9 micrograms
- Absorbance at 660 nm, complete release of mitoxantrone [4, 6]: 0.33
- Mitoxantrone corresponding to complete release absorbance [4, 6]: 60 micrograms
